{
  "source": "patent US9957273B2",
  "about": "“5-substituted 7- [4-(2-pyridyl)phenylmethylamino] -3-isopropylpyrazolo4,3-D]pyrimidine derivatives, use thereof as medicaments, and pharmaceutical compositions” (USTAV EXPERIMENTALNI BOTANIKY AV CR, V.V.I., priority 2015, dated 2018)",
  "key": {"[1]": {"tested_on": "K562 (human chronic myelogenous leukaemia)", "experiment": "MTT cytotoxicity assay, leukemic cell line K562", "type": "cell-based", "details": "Homo sapiens, K562, 72 h, three days", "source_text": "Cytotoxicity of the compounds is the major property determining their antileukemic efficacy in vivo. One of the parameters used, as the basis for cytotoxicity assays, is the metabolic activity of viable cells. For example, a microtiter assay, which uses (3-(4,5-dimethylthiazol-2-yl)-2,5-diphenyltetrazolium bromide (MTT), is widely used to quantitate cell proliferation and cytotoxicity. This assay is widely used in drug screening programs and in chemosensitivity testing. Because only metabolically active living cells reduce MTT to correspond purple formazan dye, these assays detect viable cells exclusively. The quantity of reduced MTT corresponds to the number of vital cells in the culture.\n(§1) The compounds were assayed using the following leukemic cell lines: K562 (human chronic myelogenous leukaemia), HL60 (human promyelocytic leukaemia), CEM (human lymphoblastoid leukaemia), THP1 (human monocytic cell line), MV4; 11 (acute myelocytic leukemia). All cell lines were grown in RPMI medium supplemented with fetal bovine serum and L-glutamine and maintained at 37° C. in a humidified atmosphere with 5% CO2. For cytotoxicity assays, 2000-5000 cells were seeded into each well of 96 well plate, allowed to stabilize for at least 8 h and then tested compounds were added at various concentrations ranging from 100 to 0.01 μM in triplicates. After three days, MTT solution (5 mg/ml; Sigma, St. Louis, USA) was added to cells and medium was replaced with DMSO after five hours. The absorbance was measured at 620 nm by employing a microplate reader. MTT assays were repeated 3 times for each drug application and untreated cells were used as reference."}, "[2]": {"tested_on": "caspases 3 and 7 in HCT116 cells", "experiment": "Caspase-3/7 activity assay in HCT116 cells", "type": "cell-based", "details": "24 h, FIG. 3", "experimental": "Measurement of proapoptotic properties of new compounds was based on quantification of enzymatic activities of caspases-3/7. Activity of cellular caspase-3/7 was measured according to Carrasco et al., 2003, BioTechniques, 34(5): 1064-67. Briefly, the cells were incubated in a 96-well plate overnight. Next day, the compounds in appropriate concentrations were added and cells were incubated for 24 hours. After incubation, 3× caspase-3/7 assay buffer (150 mM HEPES pH 7.4, 450 mM NaCl, 150 mM KCl, 30 mM MgCl2, 1.2 mM EGTA, 1.5% Nonidet P40, 0.3% CHAPS, 30% sucrose, 30 mM DTT, 3 mM PMSF) with 150 μM Ac-DEVD-AMC as a substrate (Sigma-Aldrich) was added to the wells and plates were incubated at 37° C. […]. The caspase activity was measured using Fluoroskan Ascent microplate reader (Labsystems) at 346 nm/442 nm (excitation/emission)."}, "[3]": {"tested_on": "HUVECs (human umbilical vein endothelial cells)", "experiment": "HUVEC migration (scratch) assay", "type": "cell-based", "details": "16 h, read-out: Inhibition of migration (EC50)", "experimental": "To verify that novel compounds have anti-vascularisation properties, we analyzed their influence on the proliferation and migration of HUVECs. HUVECs (human umbilical vein endothelial cells) were purchased from Promocell (Heidelberg, Germany) and cultured in endothelial cell growth medium (ECGM, Promocell, Heidelberg, Germany) containing 10% FCS (Biochrom, Berlin, Germany). Experiments were performed using cells at passage 3.\nFor migration assay, confluent HUVECs were scratched with a pipette tip and immediately treated with either starvation medium M199 (serum-free, negative control; PAN Biotech) or full endothelial cell growth medium (positive control). After 16 h, cells were fixed with 3% formaldehyde and images were taken using the TILLvisON system (Lochham, Germany) connected to an Axiovert 200 microscope (Zeiss, Germany). Evaluation of pictures was made by S.CO LifeScience (Garching, Germany). Migration was quantified as the ratio of the area covered with cells and the area of the cell free wound."}, "CDK2/Cyclin E": {"molecular_target": "T1, CDK2/Cyclin E (Homo sapiens, UniProt P24941)", "T1 construct": "made in house; host or cells: Sf9 insect cells (baculovirus)", "experiment": "CDK2/Cyclin E kinase inhibition (33P-ATP, histone H1)", "type": "biochemical", "details": "15 μM ATP", "experimental": "CDK2/Cyclin E kinase was produced in Sf9 insect cells via baculoviral infection and purified on a NiNTA column (Qiagen). The kinase reactions were assayed with 1 mg/mL histone H1 in the presence of 15 μM ATP, 0.05 μCi [γ-^33P]ATP and of the test compound in a final volume of 10 μL, all in a reaction buffer (60 mM HEPES-NaOH, pH 7.5, 3 mM MgCl2, 3 mM MnCl2, 3 μM Na-orthovanadate, 1.2 mM DTT, 2.5 μg/50 μl PEG20.000). CDK5/p35 was purchased from ProQinase GmbH. The kinase reactions were assayed with 1 mg/mL histone H1 in the presence of 0.15 μM ATP, 0.05 μCi [γ-^33P]ATP and of the test compound in a final volume of 10 μL, all in a reaction buffer (60 mM HEPES-NaOH, pH 7.5, 3 mM MgCl2, 3 mM MnCl2, 3 μM Na-orthovanadate, 1.2 mM DTT, 2.5 μg/50 μl PEG20.000).\n(§2) The reactions were stopped by adding 5 μL of 3% aq H3PO4. Aliquots were spotted onto P-81 phosphocellulose (Whatman), washed 3× with 0.5% aq H3PO4 and finally air-dried."}, "CDK5/p35": {"molecular_target": "T2, CDK5/p35 (Homo sapiens, UniProt Q00535)", "T2 construct": "purchased ProQinase GmbH", "T2 sequence (Q00535 whole entry)": "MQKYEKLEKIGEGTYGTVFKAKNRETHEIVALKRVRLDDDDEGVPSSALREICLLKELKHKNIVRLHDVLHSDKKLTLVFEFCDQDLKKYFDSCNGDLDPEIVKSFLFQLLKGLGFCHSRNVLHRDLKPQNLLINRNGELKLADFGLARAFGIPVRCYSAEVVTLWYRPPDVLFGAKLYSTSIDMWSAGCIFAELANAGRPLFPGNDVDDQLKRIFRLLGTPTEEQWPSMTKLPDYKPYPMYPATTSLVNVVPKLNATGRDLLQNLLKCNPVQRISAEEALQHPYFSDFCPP", "T2 sequence (Q15078 whole entry partner)": "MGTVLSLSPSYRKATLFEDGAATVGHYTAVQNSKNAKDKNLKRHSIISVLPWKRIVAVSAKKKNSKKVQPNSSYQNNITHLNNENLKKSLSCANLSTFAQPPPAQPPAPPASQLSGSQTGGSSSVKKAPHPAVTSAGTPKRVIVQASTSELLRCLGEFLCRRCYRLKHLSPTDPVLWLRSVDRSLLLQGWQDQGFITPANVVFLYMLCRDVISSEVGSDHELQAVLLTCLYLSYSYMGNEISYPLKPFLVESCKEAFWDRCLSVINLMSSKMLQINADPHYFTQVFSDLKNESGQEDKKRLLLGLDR", "experiment": "CDK5/p35 kinase inhibition (33P-ATP, histone H1)", "type": "biochemical", "details": "0.15 μM ATP", "experimental": "CDK2/Cyclin E kinase was produced in Sf9 insect cells via baculoviral infection and purified on a NiNTA column (Qiagen). […] CDK5/p35 was purchased from ProQinase GmbH.\nas §2"}, "HCT116 (colon carcinoma)": {"tested_on": "HCT116 (colon carcinoma)", "experiment": "MTT cytotoxicity assay, solid cancer cell line HCT116", "type": "cell-based", "details": "Homo sapiens, HCT-116, 72 h, three days", "experimental": "as §1, with “following” for “following leukemic”, “G361 (malignant melanoma), MCF7 (breast adenocarcinoma), PLC/PRF/5 (liver hepatoma), PANC-1 (pancreatic carcinoma) and HCT116 (colon carcinoma).” for “K562 (human chronic myelogenous leukaemia), HL60 (human promyelocytic leukaemia), CEM (human lymphoblastoid leukaemia), THP1 (human monocytic cell line), MV4; 11 (acute myelocytic leukemia).”, “DMEM” for “RPMI”, “4000-10000” for “2000-5000”, “of a” for “of”, “16” for “8”"}},
  "data": [
    {"smiles": "CC(C)c1[nH]nc2c(NCc3ccc(-c4ccccn4)cc3)nc(NCC(O)CN)nc12", "note": "(stereo not drawn) [Compound 45]", "values": [
      {"measurement": "IC50", "setting": "[1]", "value": 0.7, "unit": "µM"},
      {"measurement": "caspase-3/7 activity in HCT116 cells", "setting": "[2]", "value": "potent dose-dependent activation of the caspases in nanomolar concentrations"},
      {"measurement": "EC50", "setting": "[3]", "value": 0.5, "unit": "µM"},
      {"measurement": "IC50", "setting": "CDK2/Cyclin E", "value": 0.051, "unit": "µM"},
      {"measurement": "IC50", "setting": "CDK5/p35", "value": 0.017, "unit": "µM"},
      {"measurement": "IC50", "setting": "HCT116 (colon carcinoma)", "value": 0.37, "unit": "µM"}
    ]}
  ]
}
